Assay results: patent US10947243B2, “Heteroaryl SYK inhibitors” (Boehringer Ingelheim International GmbH, priority 2014, dated 2021)
Where two headings read alike, the source gives them in different places.

Assays:
[1] = molecular target: Recombinant human Syk (amino acids 342-635) (Homo sapiens (Human), UniProt P43405); experiment: Syk Kinase Test (Kinase Glo luminescence); type: biochemical
Method: (§1) The output file of the reader is a csv file that contains the well number and measured relative light units (RLU). For data evaluation and calculation, the measurement of the negative control was set as 100% ctrl and the measurement of the positive control was set as 0% ctrl. Based on this values the % value for the measurement of each substance concentration was calculated using an Assay Explorer software (Accelrys). Normally, the % ctrl values calculated are between 0% and 100% values but may also occur outside these limits in individual cases based on variability or compound characteristics. The IC50 values were calculated from the % ctrl values using Assay Explorer software. Calculation: [y=(a−d)/(1+(x/c)^b)+d] a=low value, d=high value; x=conc M; c=IC50 M; b=hill; y=% ctrl.

[2] = Human Liver Microsomal Stability Test; type: in vitro ADME; conditions: human liver microsomes
Method: The metabolic degradation for a specific SYK-inhibitor is performed at 37° C. with pooled human liver microsomes (human liver microsomes are commercially available as “BD UltraPool™” by Corning Life Sciences, Fogostraat 12, 1060 LJ Amsterdam, The Netherlands). The final incubation volume of 100 μl per time point contains TRIS buffer pH 7.6 at RT (0.1 M), magnesium chloride (5 mM), microsomal protein (1 mg/ml) and the test compound at a final concentration of 1 μM.
Following a short preincubation period at 37° C., the reaction is initiated by addition of beta-nicotinamide adenine dinucleotide phosphate in its reduced form (NADPH, 1 mM) and terminated by transfering an aliquot into solvent after different time points. Additionally, the NADPH-independent degradation is monitored in incubations without NADPH, terminated at the last time point.
The quenched (terminated) incubations are then pelleted by centrifugation (10000 g, 5 min).
An aliquot of the supernatant is assayed by LC-MS/MS for the remaining amount of parent compound. The half-life (t½ INVITRO) is determined by the slope of the semilogarithmic plot of the concentration-time profile.
The intrinsic clearance (CL_[…]) is calculated by considering the amount of protein in the incubation: CL_[…] [μl/min/mg protein]=(Ln 2/(t½INVITRO [min]*protein content [mg/ml]))*1000
The protein content [mg/ml] was determined with the “Bicinchoninic Acid Kit” of Sigma Aldrich (commercially available).
The upscaled intrinsic Clearance (CL_UP_INT) is calcuated by considering the liver weight [g liver/kg body weight] and the microsomal recovery [mg protein/g liver]: CL_UP_INT [ml/min/kg]=0.001*CL_[…]*liver weight*microsomal recovery • with microsomal recovery=45 mg protein/g liver • with liver weight=25.7 g liver/kg body weight
The percent hepatic blood flow (% Qh) is finally calculated by considering the human liver blood flow Q [ml/min/kg]: % Qh [%]=((Q*CL_UP_INT)/(Q+CL_UP_INT)/Q)*100 • with liver blood flow (Q)=20.7 ml/min/kg.

[3] = molecular target: Recombinant human Aurora B (amino acids 1-344) (Homo sapiens (Human), UniProt Q96GD4); experiment: Aurora B Kinase Test (ADP Glo luminescence); type: biochemical
Recombinant human Aurora B (amino acids 1-344), sequence (Q96GD4 whole entry, the tested form may be a part): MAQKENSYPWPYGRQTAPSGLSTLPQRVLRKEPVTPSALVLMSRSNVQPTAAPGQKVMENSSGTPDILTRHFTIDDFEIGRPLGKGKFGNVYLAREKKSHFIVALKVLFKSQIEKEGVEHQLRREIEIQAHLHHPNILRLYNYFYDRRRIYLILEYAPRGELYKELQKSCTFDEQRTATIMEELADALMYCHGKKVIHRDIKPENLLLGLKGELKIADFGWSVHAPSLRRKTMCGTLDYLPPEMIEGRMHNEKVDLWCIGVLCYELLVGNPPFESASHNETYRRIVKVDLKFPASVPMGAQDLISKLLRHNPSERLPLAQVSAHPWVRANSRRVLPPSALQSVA
Method: The activity of the Aurora B kinase protein was determined using the ADP Glo® Luminescence Kinase test (Promega; V9103X).
Serial Dilution is done in 1:10 steps in 100% DMSO.
Then 20 μl Kinase detection mix (Detection Buffer #V913B Promega; Kinase Detection Substrate #V914B Promega) were added and incubated for 40 minutes at room temperature.
as §1, with “measured RLU.” for “measured relative light units (RLU).”, “as 0%” for “as 100%”, “as 100%” for “as 0%”, “Calculation: [y=(a−d)/(1+(x/c)^b)+d],” for “Calculation: [y=(a−d)/(1+(x/c)^b)+d]”

[4] = molecular target: FLT3 (Homo sapiens (Human), UniProt P36888); experiment: FLT3 Kinase Test (Z'-LYTE); type: biochemical
FLT3, sequence (P36888 564-958): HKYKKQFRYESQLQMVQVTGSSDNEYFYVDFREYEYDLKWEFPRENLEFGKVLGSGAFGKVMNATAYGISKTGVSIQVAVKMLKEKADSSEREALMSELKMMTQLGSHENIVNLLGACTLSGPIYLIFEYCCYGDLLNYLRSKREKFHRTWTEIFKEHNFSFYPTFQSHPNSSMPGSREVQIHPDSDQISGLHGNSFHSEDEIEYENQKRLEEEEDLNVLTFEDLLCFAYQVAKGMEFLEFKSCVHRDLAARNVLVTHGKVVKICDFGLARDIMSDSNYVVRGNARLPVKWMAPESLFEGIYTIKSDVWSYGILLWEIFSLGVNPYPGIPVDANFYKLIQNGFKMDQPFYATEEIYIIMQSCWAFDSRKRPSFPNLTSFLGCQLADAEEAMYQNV
Method: The activity of FLT3 is measured using the Z′-LYTE™ assay technology from Invitrogen (#PV3191)
The reaction is started by addition of 2.5 μl of the 4×ATP solution.
(§2) Positive controls are reaction mixtures containing no test compound; negative controls (blanks) are reaction mixtures containing no kinase. As a further control, the phosphopeptide solution is added to wells without kinase (=100% phosphorylation control).
The reaction is performed for 1 h at room temperature before 5 μl of the development solution is added. After a further incubation for 1 h at room temperature 5 μl of the stop reagent is added.
The output text file is evaluated in an “MS-Excel-VB-Makro” and “GraphPadPrism” (Version 5) (GraphPad Software Inc.) is used to calculate the results. Data for the inhibition of FLT3 are reported in M. data for the inhibition of the protease are reported in % CTL.

[5] = molecular target: Human GSK3beta (Homo sapiens (Human), UniProt P49841); experiment: GSK 3β Kinase-Test (Z'-LYTE); type: biochemical; conditions: comparison compounds, read-out: IC50 in μM (GSK3beta-Inhibition)
Human GSK3beta, sequence (P49841 whole entry): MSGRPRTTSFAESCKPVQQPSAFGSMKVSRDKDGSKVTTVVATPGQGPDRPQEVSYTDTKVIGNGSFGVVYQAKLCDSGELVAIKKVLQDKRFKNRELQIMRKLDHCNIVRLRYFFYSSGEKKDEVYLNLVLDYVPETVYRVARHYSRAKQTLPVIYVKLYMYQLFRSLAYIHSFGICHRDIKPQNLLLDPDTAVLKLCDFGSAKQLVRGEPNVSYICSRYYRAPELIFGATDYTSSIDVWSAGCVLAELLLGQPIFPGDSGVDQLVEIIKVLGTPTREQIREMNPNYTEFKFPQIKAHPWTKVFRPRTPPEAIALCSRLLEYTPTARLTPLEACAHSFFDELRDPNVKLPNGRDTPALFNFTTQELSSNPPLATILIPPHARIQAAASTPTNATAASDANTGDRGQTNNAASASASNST
Method: Human GSK3beta (expressed and prified from SF21 cells) is obtained from the University Dundee/Scotland (Dr. James Hastie—Dept. of Biochemistry) in 50 mM Tris (pH7.5); 150 mM NaCl; 0.1 mM EGTA, 270 mM Succrose, 0.1% B-mercaptoethanol, 1 mM benzamidine, 0.2 mM PMSF; sequence see below). The enzyme is diluted to 3.56 μM (168 μg/ml) in enzyme dilution buffer and 6 μl aliquots are stored at −80° C.
The activity of GSK3 kinase protein is measured using the Z′-LYTE™ assay technology from Invitrogen (# PV3324).
The assay is performed in 384 black plates from Corning (#3676) in a final volume of 10 μl by adding 5 μl of kinase peptide mix and 2.5 μl of compound dilution. The reaction is started by addition of 2.5 μl of the 4×ATP solution.
as §2, with “ATP.” for “kinase.”, “kinase and without ATP” for “kinase”, “control). The non inhibited kinase reaction will result in a phosphorylation corresponding to 20%-30% of the phosphorylation control.” for “control).”
The reaction is performed 1 h at room temperature. After 1 h 5 μl of the development solution is added. After a further incubation for 1 h at room temperature 5 μl of the stop reagent is added. Finally the plates are read on a Flex Station II 384 (Molecular Devices).
The output text file is evaluated in an “MS-Excel-VB-Makro” and “GraphPadPrism” (Version 5) (GraphPad Software Inc.) is used to calculate the results. Data for the inhibition of GSK3beta are reported in M. data for the inhibition of the protease are reported in % CTL.

[6] = comparison compounds, Example numbers of WO 2011/092128, read-out: IC50 in μM (SYK-Inhibition)
[7] = compounds of the invention (own Example numbers)
[8] = comparison compounds, Example numbers of WO 2011/092128, read-out: IC50 in μM (AURB-Inhibition)
[9] = comparison compounds, Example numbers of WO 2011/092128, read-out: IC50 in μM (FLT3-Inhibition)
[10] = comparison compounds, Example numbers of WO 2013/014060, read-out: IC50 in μM (SYK-Inhibition)
[11] = comparison compounds, Example numbers of WO 2013/014060
[12] = comparison compounds, Example numbers of WO 2013/014060, read-out: IC50 in μM (AURB-Inhibition)
[13] = comparison compounds, Example numbers of WO 2013/014060, read-out: IC50 in μM (FLT3-Inhibition)
[14] = Example numbers of WO 2013/014060

Row | Molecule | IC50 [1, 10] | microsomal stability Cl [% Qh] [2, 11] | IC50 [3, 12] | IC50 [4, 13] | other results
1 | COc1ccc(-c2cc3nn(C)cc3c(O[C@H](C)[C@H]3CNC(=O)C3)n2)cc1OC [Example 1, (4R)-4-[(1R)-1-[6-(3,4-Dimethoxyphenyl)-2-methyl-pyrazolo[4,3-c]pyridin-4-yl]oxyethyl]pyrrolidin-2-one] |  |  |  |  | IC50 [1, 6]: 0.009 µM; microsomal stability Cl [% Qh] [2, 7]: <23 % Qh; IC50 [3, 8]: 5.09 µM; IC50 [4, 9]: 1.53 µM
2 | C[C@@H](Oc1nc(-c2cnn(C3CCCCC3)c2)cc2nn(C)cc12)[C@H]1CNC(=O)C1 [Example 7, (R)-4-((R)-1-(6-(1-cyclohexyl-1H-pyrazol-4-yl)-2-methyl-2H-pyrazolo[4,3-c]pyridin-4-yloxy)ethyl)pyrrolidin-2-one] |  |  |  |  | IC50 [1, 6]: 0.002 µM; microsomal stability Cl [% Qh] ([2]; comparison compounds, Example numbers of WO 2011/092128): 79 % Qh; IC50 [3, 8]: 2.33 µM; IC50 ([5]; Example numbers of WO 2011/092128): > 10 µM; IC50 [4, 9]: 0.452 µM
3 | C[C@@H](Oc1nc(-c2cnn(C3CCC(F)(F)CC3)c2)cc2nn(C)cc12)[C@H]1CNC(=O)C1 [Example 10, (4R)-4-[(1R)-1-[6-[1-(4,4-Difluorocyclohexyl)pyrazol-4-yl]-2-methyl-pyrazolo[4,3-c]pyridin-4-yl]oxyethyl]pyrrolidin-2-one] | 0.001 µM | 57 % Qh | 0.271 µM | 0.312 µM | IC50 [5, 14]: > 10 µM
4 | C[C@@H](Oc1cc(-c2cscn2)cc2nn(C)cc12)[C@H]1CNC(=O)C1 [Example 29, (4R)-4-[(1R)-1-(2-methyl-6-thiazol-4-yl-indazol-4-yl)oxyethyl]pyrrolidin-2-one] |  | 44 % Qh |  |  | IC50 ([3]; read-out: AURB-inhibition IC50-value): > 50 µM; IC50 ([3]; read-out: IC50 in μM (AURB-Inhibition)): 0.293 µM; IC50 [5, 14]: > 10 µM
5 | C[C@@H](Oc1cc(-c2ccc(C3CCN(C)CC3)cc2)cc2nn(C)cc12)[C@H]1CNC(=O)C1 [Example 42, (4R)-4-[(1R)-1-[2-methyl-6-[4-(1-methyl-4-piperidyl)-phenyl]indazol-4-yl]oxyethyl]-pyrrolidin-2-one] | 0.002 µM | <23 % Qh | 0.63 µM | 0.618 µM | microsomal stability Cl [% Qh] ([2]; percent hepatic blood flow): <23 % Qh
6 | COc1cc(-c2cc3nn(C)cc3c(O[C@H](C)[C@H]3CNC(=O)C3)n2)ccc1OC(C)C [Example 81, (4R)-4-[(1R)-1-[6-(4-isopropoxy-3-methoxy-phenyl)-2-methyl-pyrazolo-[4,3-c]pyridin-4-yl]oxyethyl]-pyrrolidin-2-one] | 0.003 µM | <23 % Qh | 0.949 µM | 0.514 µM | microsomal stability Cl [% Qh] [2, 7]: <23 % Qh
7 | (4R)-4-[(1R)-1-[2-methyl-6-(3-methyl-1-tetrahydropyran-4-yl-pyrazol-4-yl)pyrazolo-[4,3-c]pyridin-4-yl]oxyethyl]-pyrrolidin-2-one [Example 79] |  |  |  |  | IC50 ([1]; read-out: SYK-inhibiton IC50-value): 0.0364 µM; IC50 ([4]; read-out: FLT3-inhibition IC50-value): 26.7 µM

Continued, in another order:

Row | IC50 [1, 10] | microsomal stability Cl [% Qh] [2, 11] | IC50 [3, 12] | IC50 [4, 13] | Molecule | other results
8 | 0.007 µM | 81 % Qh | 16.9 µM | 7.39 µM | C[C@@H](Oc1nc(-c2cnn(C(C)(C)C)c2)cc2nn(C)cc12)[C@H]1CNC(=O)C1 [Example 2, (4R)-4-[(1R)-1-[6-(1-tert-Butylpyrazol-4-yl)-2-methyl-pyrazolo[4,3-c]pyridin-4-yl]oxyethyl]pyrrolidin-2-one] | microsomal stability Cl [% Qh] [2, 7]: <23 % Qh
9 | 0.001 µM | 37 % Qh | 0.308 µM | 0.505 µM | C[C@@H](Oc1cc(-c2ccc(F)cn2)cc2nn(C)cc12)[C@H]1CNC(=O)C1 [Example 41, (4R)-4-[(1R)-1-[6-(5-fluoro-2-pyridyl)-2-methyl-indazol-4-yl]oxyethyl]pyrrolidin-2-one] | microsomal stability Cl [% Qh] ([2]; percent hepatic blood flow): <23 % Qh
10 | 0.002 µM | <23 % Qh | 0.25 µM | 0.411 µM | C[C@@H](Oc1nc(-c2ccc(C(F)(F)F)nc2)cc2nn(C)cc12)[C@H]1CNC(=O)C1 [Example 61, (4R)-4-[(1R)-1-[2-methyl-6-[6-(trifluoromethyl)-3-pyridyl]pyrazolo[4,3-c]pyridin-4-yl]oxyethyl]pyrrolidin-2-one] | microsomal stability Cl [% Qh] ([2]; percent hepatic blood flow): <23 % Qh
11 |  | 26 % Qh | 2.54 µM | 0.049 µM | CCCn1cc(-c2cc(O[C@H](C)[C@H]3CNC(=O)C3)c3cccnc3c2)cn1 [compound 114] | IC50 [5, 14]: > 10 µM
